Literature values in patent publication US12644083B2, “Dual circulation microphysiological system” (CN Bio Innovations Limited, priority 2019, dated 2026).

Tested on: primary human hepatocytes
Settings: for rate of metabolism (in words): general statement: considered to be slowly metabolised; for test phase required to give measurable changes (metabolism): single loop 3D liver scaffold system

| rate of metabolism (in words) | test phase required to give measurable changes (metabolism) [days] | SMILES |
| --- | --- | --- |
| slowly metabolised | 5 | CC(C)(C)NC[C@H](O)COc1nsnc1N1CCOCC1 [timolol] |
| slowly metabolised | 5 | CC(C)N(CCC(C(N)=O)(c1ccccc1)c1ccccn1)C(C)C (stereo not shown) [disopyramide] |
